Read-outs that look alike come from different tables or passages of the source.
Columns and labels:
[1] = tested on: HepG-2 human liver cancer cells; assay: MTT colorimetric proliferation / cell survival assay, HepG-2; format: cell-based; conditions: for Cell survival rate (%) HepG2: Liver cancer, TGTA 50 μM
Description: (§1) A flask with the cancer cells required for the experiment, with an original culture solution discarded, was washed for three times with 2 mL of PBS, 1 mL of pancreatin was added for digestion for 30 s, and 2 mL of a medium was added to terminate the digestion. The cells were transferred to a centrifuge tube and centrifuged at 1000 rpm for 3 min, the supernatant was discarded, and 2 mL of a medium was added and blew 10 times to be mixed uniformly. 10 μL of a cell suspension was taken for cell counting, and spread on a 96-well plate, with 5000 cells per well and 3 duplications for each compound, and then the number of cells and cell wells was calculated. The amount of required cell suspension and the number of cells for medium dilution were calculated by cell counting. 100 μL of medium was plated with 5000 cells per well, pipetted and mixed uniformly, and the cells were inoculated using a volley, placed in an incubator for culture, and marked.
(§2) (2) The cells cultured in step (1) was taken, and discarded with the original medium. Auranofin mother liquor was diluted to a diluent with final concentrations of 0, 0.78125, 1.5625, 3.125, 6.25, 12.5, 25, 50 and 100 μM, and mixed uniformly. A volley (using 3 wells) was used to draw 100 μL of dilution per well, a 96-well plate was tilted, diluents with each concentration were added in sequence to the corresponding 3 marked wells carefully to prevent poking the cells, blown and sucked about 3 times to be mixed uniformly, marked, shaken for 3 times, and put into a CO2 incubator for culture. The above steps were repeated for each auranofin diluent.
(§3) After auranofin was added for culture for 1 hour, the mother liquor of the mercapto compound was diluted into […] and mixed uniformly. A volley (using 3 wells) was used to suck 20 μL of diluent per well, the 96-well plate was tilted, the diluents of different mercapto compounds were added in sequence to the corresponding 3 marked wells carefully to prevent poking the cells, blown and sucked about 3 times to be mixed uniformly, and put back to the incubator to continue culture.
(§4) After different mercapto compounds were added to cells for 24 h, 20 μL of MTT (with a concentration of 5 mg/mL in PBS) per well was added to the 96-well plate by a volley; and incubation was carried out at 37° C. for 4 h. At the end of incubation, the MTT mixture was sucked out, and DMSO was added at 130 μL/well using a volley.
(§5) According to the results of Table 1-2, the killing effect of auranofin in combination with various compounds (with 30% FBS) on HCT116 human colon cancer cells and the killing effect of the auranofin-TGTA (50 μM) in combination with other cancer cells (lung cancer, colon cancer, breast cancer, liver cancer, cervical cancer and gastric cancer cells) were further detected by using the same method as the above.

[2] = tested on: A549 human lung cancer cells; assay: MTT colorimetric proliferation / cell survival assay, A549; format: cell-based; conditions: for Cell survival rate (%) A549: Lung cancer, TGTA 50 μM
Description: as §1, §2, §3, §4, §5

[3] = tested on: MCF-7 human breast cell cancer cells; assay: MTT colorimetric proliferation / cell survival assay, MCF-7; format: cell-based; conditions: for Cell survival rate (%) MCF-7: breast cancer, TGTA 50 μM
Description: as §1, §2, §3, §4, §5

[4] = tested on: PC9 human lung cancer cells; assay: MTT cell survival assay, PC9; format: cell-based; conditions: TGTA 50 μM
Description: as §1, with “marked. […]” for “marked.”
as §5

PCGR lung cancer cells = assay: MTT cell survival assay, PCGR; format: cell-based; conditions: TGTA 50 μM
Description: as §1, with “marked. […]” for “marked.”
as §5

[5] = tested on: Hela human cervical cancer cells; assay: MTT cell survival assay, Hela; format: cell-based; conditions: TGTA 50 μM
Description: as §1, with “marked. […]” for “marked.”
as §5

[6] = tested on: MGC803 human gastric cancer cells; assay: MTT cell survival assay, MGC803; format: cell-based; conditions: TGTA 50 μM
Description: as §1, with “marked. […]” for “marked.”
as §5

[7] = tested on: HCT116 human colon cancer cells; assay: MTT colorimetric proliferation / cell survival assay, HCT116; conditions: for Cell survival rate (%) HCT116: colon cancer, TGTA 50 μM; for Cell survival rate (%): compound alone, others not given; for Cell survival rate (%) / Cell survival rate after addition of 10 μM auranofin (%): with 30% FBS, 50 μM for TGTA, β-mercaptoethanol, mercaptoethylamine, DEDT; for Cell survival rate after addition of 10 μM auranofin (%): compound plus 10 μM auranofin, listed as Auranofin = auranofin alone
TrxR = assay: Intracellular TrxR activity in HepG2 cells (DTNB reduction); format: cell-based, human
Description: (§6) HepG2 cells were used as a test subject.
(§7) The cells were inoculated into a 6-well plate at 2×10^5 cell/well and incubated for 24 h.
After the incubation, the cell culture medium was replaced with 30% FBS to simulate the high concentration mercapto environment under the normal physiological condition, and used as a control (without adding any reagents). The experimental group was added with 0.5 μM of auranofin for incubation at 37° C. for 30 min, and then added with the mercapto compound (DEDT, β-mercaptoethanol or mercaptoethylamine) for incubation for 30 min (final concentration of DMSO in the system was ≤1%). The incubated cells were washed for 3 times with PBS, added with 100 μL of icy lysis buffer (containing 50 mM of phosphate buffer with pH 7.4, 1 mM EDTA, and 0.10% Triton-X 100), and then lysed on ice for 5 min to collect the cell lysate.
100 μL of buffer (containing 50 mM of potassium phosphate with pH 7.4, 1 mM EDTA, and 0.2 mM NADPH) was added to the collected cell lysate (10 μg protein), 5,5′-dithiobis (2-nitrobenzoic acid) (DTNB, with a final concentration of 3 mM) was added to initiate a reaction, and the activity of TrxR was obtained on the basis of the increased OD value in 10 minutes (OD detection wavelength was 410 nm). Auranofin alone was the positive control sample, and the blank group was the negative control.

[8] = tested on: HCT-8 human colon adenocarcinoma cells; assay: MTT colorimetric proliferation assay, HCT-8; format: cell-based; conditions: containing 40 mg/mL BSA; 200 μM of added compound
Description: as §1
(2) The cells cultured in step (1) was taken, and discarded with the original medium. Auranofin mother liquor was diluted to a diluent with final concentrations of 0, 0.78125, 1.5625, 3.125, 6.25, 12.5, 25, 50 and 100 μM, and mixed uniformly. […]

HepG2 cells = assay: Cell uptake of auranofin (gold by ICP-MS) in HepG2 cells; format: cell-based, human
Description: as §6, §7
After the incubation, the cell culture medium was replaced with 30% of FBS to stimulate a high-concentration mercapto environment under the normal physiological condition, and used as a control (without adding any reagents). The experimental group was added with 3 μM of auranofin for incubation at 37° C. for 10 min and then added with the mercapto compound (DEDT, β-mercaptoethanol or mercaptoethylamine) for incubation for 1 h (final concentration of DMSO in the system was 1%). After incubation, the cells were immediately washed for 3 times with PBS, 500 μL of ultrapure water was added to each well to break the cells, and after 15 min, the cell lysate was collected.
The collected cell lysate was dissolved by adding aqua regia and diluted with ultrapure water to a proper proportion. Inductively coupled plasma mass spectrometry (ICP-MS) was used for gold detection. The cell uptake rate of 3 μM […] without FBS was used as the control.
Wherein, the above uptake is the amount of gold (mg) in 1 g protein in the cell.

[9] = tested on: colon cancer cell HCT116 xenograft; assay: Mouse tumor model, HCT116 xenograft; format: in vivo, BALB/Cann nu (Nude) mice; conditions: HCT116 xenograft in nude mice; intraperitoneal once a day; auranofin 3 mg/kg/day, mercapto compound (β-mercaptoethanol or TGTA) 40 mg/kg/day
Description: Establishment of mouse tumor model: 2 million colon cancer cell HCT116 cells suspended in PBS were injected subcutaneously into the dorsal side of 5-7 week-old female BALB/Cann nu (Nude) mice to establish a xenograft model.
When the tumor volume reached about 50 mm^3 (3-4 days after tumor inoculation), mice were randomly divided into a control group and a treatment group, the control group was treated with corn oil, the treatment group was intraperitoneally injected with auranofin (3 mg/kg mouse body weight/day) in combination with various mercapto compounds (β-mercaptoethanol or TGTA, 40 mg/kg mouse body weight/day) once a day. When the tumor volume grew to 1000 mm^3, the mice were anesthetized and then sacrificed by dislocation of the cervical spine.

[10] = tested on: acute lymphocytic leukemia cell P388; conditions: mice inoculated with P388; earlier studies; cited from earlier work
solid tumor models = conditions: several solid tumor models; intraperitoneal injection; follow-up studies; cited from earlier work

CC(=O)OC[C@H]1O[C@@H](S)[C@H](OC(C)=O)[C@@H](OC(C)=O)[C@@H]1OC(C)=O [TGTA, 1-thio-β-D-glucose tetraacetate]
Cell survival rate (%) HepG2 [1]: 104 ± 4%
Cell survival rate (%) A549 [2]: 104 ± 6%
Cell survival rate (%) MCF-7 [3]: 99 ± 3%
Cell survival rate (%) PC9 [4]: 104 ± 2%
Cell survival rate (%) PCGR (PCGR lung cancer cells): 101 ± 3%
Cell survival rate (%) Hela [5]: 87 ± 6%
Cell survival rate (%) MGC803 [6]: 104 ± 9%
Cell survival rate (%) HCT116 [7]: 97 ± 5%
Cell survival rate (%) [7]: 97 ± 5%
Cell survival rate after addition of 10 μM auranofin (%) [7]: 18 ± 2%

[Na+].[Na+].[Na+].[O-]P([O-])([O-])=S [Sodium thiophosphate hydrate]
Cell survival rate (%) [7]: 99 ± 8%
Cell survival rate after addition of 10 μM auranofin (%) [7]: 79 ± 4%

Cn1cc[nH]c1=S [Methimazole]
Cell survival rate (%) [7]: 98 ± 9%
Cell survival rate after addition of 10 μM auranofin (%) [7]: 87 ± 5%

OCCS [β-mercaptoethanol]
Activity of TrxR (TrxR; mercapto compound alone 200 μM, 30% FBS): 127.3%
Cell survival rate (%) [7]: 96 ± 15%
Cell survival rate after addition of 10 μM auranofin (%) [7]: 55 ± 4%

CC(=O)OC[C@H]1O[C@@H]([S-])[C@H](OC(C)=O)[C@@H](OC(C)=O)[C@@H]1OC(C)=O.CCP(CC)CC.[Au+] [Auranofin]
Cell survival rate (%) HepG2 [1]: 87 ± 1%
IC50 ([1]; auranofin alone, without BSA/FBS, read-out: IC50 HepG2 Human liver cancer cells): 1300 nM
IC50 ([1]; containing 40 mg/mL BSA, 200 μM of added compound, read-out: IC50 HepG-2 Human liver cancer cells): 16600 nM
IC50 ([1]; under the normal physiological condition, auranofin alone, read-out: IC50 value, proliferation of HepG-2 human liver cancer cells): > 30000 nM
IC50 ([1]; with 10% FBS, mercapto compound added 1 h after auranofin, MTT after 24 h, read-out: IC50 HepG-2 Human liver cancer cells): 3000 nM
Cell survival rate (%) A549 [2]: 81 ± 7%
IC50 ([2]; auranofin alone, without BSA/FBS, read-out: IC50 A549 Human lung cancer cells): 4.2 µM
IC50 ([2]; containing 40 mg/mL BSA, 200 μM of added compound, read-out: IC50 A549 Human lung cancer cells): 70.5 µM
IC50 ([2]; under the normal physiological condition, auranofin alone, read-out: IC50 value, proliferation of A549 human lung cancer cells): > 30 µM
IC50 ([2]; with 10% FBS, mercapto compound added 1 h after auranofin, MTT after 24 h, read-out: IC50 A549 Human lung cancer cells): 12.9 µM
IC50 ([3]; auranofin alone, without BSA/FBS, read-out: IC50 MCF-7 Human breast cell cancer cells): 3.4 µM
Cell survival rate (%) MCF-7 [3]: 80 ± 2%
IC50 ([3]; containing 40 mg/mL BSA, 200 μM of added compound, read-out: IC50 MCF-7 Human breast cell cancer cells): 39.7 µM
IC50 ([3]; under the normal physiological condition, auranofin alone, read-out: IC50 value, proliferation of MCF-7 human breast cell cancer cells): > 30 µM
IC50 ([3]; with 10% FBS, mercapto compound added 1 h after auranofin, MTT after 24 h, read-out: IC50 MCF-7 Human breast cell cancer cells): 5.7 µM
IC50 [8]: 33.2 µM
Cell survival rate (%) PC9 [4]: 93 ± 3%
Cell survival rate (%) PCGR (PCGR lung cancer cells): 37 ± 4%
Cell survival rate (%) Hela [5]: 46 ± 7%
Cell survival rate (%) MGC803 [6]: 79 ± 3%
Activity of TrxR (TrxR; 0.5 μM auranofin alone, with 30% FBS): 63.6%
Activity of TrxR (TrxR; 0.5 μM auranofin alone, with 30% FBS, listed as Positive control): 63.6%
Activity of TrxR (TrxR; 0.5 μM auranofin alone, without FBS, relative to negative control 100%): 15.9%
Activity of TrxR (TrxR; 0.5 μM auranofin alone, without FBS, relative to negative control 100%, listed as Positive control): 15.9%
uptake of gold (HepG2 cells): 728 mg/g protein
growth of tumors [9]: not effectively inhibited
life span of mice [10]: effectively prolong the life span
life span of mice and growth of tumors (solid tumor models): could neither prolong the life span of mice nor inhibit the growth of tumors
Cell survival rate (%) HCT116 [7]: 75 ± 5%
Cell survival rate after addition of 10 μM auranofin (%) [7]: 75 ± 5%
IC50 ([7]; read-out: IC50 HCT116 Human colon cancer cells, auranofin alone, without BSA/FBS): 1 µM
IC50 ([7]; read-out: IC50 HCT116 Human colon cancer cells, with 10% FBS, mercapto compound added 1 h after auranofin, MTT after 24 h): 3.4 µM
IC50 ([7]; read-out: IC50 HCTI16 Human colon cancer cells, containing 40 mg/mL BSA, 200 μM of added compound): 30 µM
IC50 ([7]; read-out: IC50 value, proliferation of HCT116 human colon cancer cells, under the normal physiological condition, auranofin alone): > 30 µM

CC(=O)N[C@@H](CS)C(=O)O [N-acetylcysteine (NAC), N-acetylcysteine]
Cell survival rate (%) [7]: 100 ± 6%
Cell survival rate after addition of 10 μM auranofin (%) [7]: 77 ± 17%
